One test deals with T1, LRRK2 WT (Homo sapiens, UniProt Q5S007).
T1 construct: purchased Life Technologies PR8604B
In words: LRRK2 Kinase Activity Assay (LanthaScreen TR-FRET), wild type. It is filed as biochemical. As to conditions: recombinant wild type LRRK2, 25 μM ATP, 400 nM LRRKtide, 60 min. The gist of the method: (§1)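 IC50 fitted to the compound-dependent loss of TR-FRET signal. Each kinase form, wild type or G2019S, phosphorylated the fluorescein-tagged ERM-derived LRRKtide in the presence of ATP and compound dilutions over 60 min at room temperature; quench contained 10 mM EDTA and 2 nM anti-pERM antibody (final).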

For the next test, the target named is T2, LRRK2 G2019S (Homo sapiens, UniProt Q5S007, G2019S).
T2 construct: purchased Life Technologies PV4881
In words: LRRK2 Kinase Activity Assay (LanthaScreen TR-FRET), G2019S. It is filed as biochemical. As to conditions: recombinant G2019S-LRRK2, 25 μM ATP, 400 nM LRRKtide, 60 min; class symbols. The gist of the method:
as §1

T2 sequence (Q5S007 whole entry G2019S): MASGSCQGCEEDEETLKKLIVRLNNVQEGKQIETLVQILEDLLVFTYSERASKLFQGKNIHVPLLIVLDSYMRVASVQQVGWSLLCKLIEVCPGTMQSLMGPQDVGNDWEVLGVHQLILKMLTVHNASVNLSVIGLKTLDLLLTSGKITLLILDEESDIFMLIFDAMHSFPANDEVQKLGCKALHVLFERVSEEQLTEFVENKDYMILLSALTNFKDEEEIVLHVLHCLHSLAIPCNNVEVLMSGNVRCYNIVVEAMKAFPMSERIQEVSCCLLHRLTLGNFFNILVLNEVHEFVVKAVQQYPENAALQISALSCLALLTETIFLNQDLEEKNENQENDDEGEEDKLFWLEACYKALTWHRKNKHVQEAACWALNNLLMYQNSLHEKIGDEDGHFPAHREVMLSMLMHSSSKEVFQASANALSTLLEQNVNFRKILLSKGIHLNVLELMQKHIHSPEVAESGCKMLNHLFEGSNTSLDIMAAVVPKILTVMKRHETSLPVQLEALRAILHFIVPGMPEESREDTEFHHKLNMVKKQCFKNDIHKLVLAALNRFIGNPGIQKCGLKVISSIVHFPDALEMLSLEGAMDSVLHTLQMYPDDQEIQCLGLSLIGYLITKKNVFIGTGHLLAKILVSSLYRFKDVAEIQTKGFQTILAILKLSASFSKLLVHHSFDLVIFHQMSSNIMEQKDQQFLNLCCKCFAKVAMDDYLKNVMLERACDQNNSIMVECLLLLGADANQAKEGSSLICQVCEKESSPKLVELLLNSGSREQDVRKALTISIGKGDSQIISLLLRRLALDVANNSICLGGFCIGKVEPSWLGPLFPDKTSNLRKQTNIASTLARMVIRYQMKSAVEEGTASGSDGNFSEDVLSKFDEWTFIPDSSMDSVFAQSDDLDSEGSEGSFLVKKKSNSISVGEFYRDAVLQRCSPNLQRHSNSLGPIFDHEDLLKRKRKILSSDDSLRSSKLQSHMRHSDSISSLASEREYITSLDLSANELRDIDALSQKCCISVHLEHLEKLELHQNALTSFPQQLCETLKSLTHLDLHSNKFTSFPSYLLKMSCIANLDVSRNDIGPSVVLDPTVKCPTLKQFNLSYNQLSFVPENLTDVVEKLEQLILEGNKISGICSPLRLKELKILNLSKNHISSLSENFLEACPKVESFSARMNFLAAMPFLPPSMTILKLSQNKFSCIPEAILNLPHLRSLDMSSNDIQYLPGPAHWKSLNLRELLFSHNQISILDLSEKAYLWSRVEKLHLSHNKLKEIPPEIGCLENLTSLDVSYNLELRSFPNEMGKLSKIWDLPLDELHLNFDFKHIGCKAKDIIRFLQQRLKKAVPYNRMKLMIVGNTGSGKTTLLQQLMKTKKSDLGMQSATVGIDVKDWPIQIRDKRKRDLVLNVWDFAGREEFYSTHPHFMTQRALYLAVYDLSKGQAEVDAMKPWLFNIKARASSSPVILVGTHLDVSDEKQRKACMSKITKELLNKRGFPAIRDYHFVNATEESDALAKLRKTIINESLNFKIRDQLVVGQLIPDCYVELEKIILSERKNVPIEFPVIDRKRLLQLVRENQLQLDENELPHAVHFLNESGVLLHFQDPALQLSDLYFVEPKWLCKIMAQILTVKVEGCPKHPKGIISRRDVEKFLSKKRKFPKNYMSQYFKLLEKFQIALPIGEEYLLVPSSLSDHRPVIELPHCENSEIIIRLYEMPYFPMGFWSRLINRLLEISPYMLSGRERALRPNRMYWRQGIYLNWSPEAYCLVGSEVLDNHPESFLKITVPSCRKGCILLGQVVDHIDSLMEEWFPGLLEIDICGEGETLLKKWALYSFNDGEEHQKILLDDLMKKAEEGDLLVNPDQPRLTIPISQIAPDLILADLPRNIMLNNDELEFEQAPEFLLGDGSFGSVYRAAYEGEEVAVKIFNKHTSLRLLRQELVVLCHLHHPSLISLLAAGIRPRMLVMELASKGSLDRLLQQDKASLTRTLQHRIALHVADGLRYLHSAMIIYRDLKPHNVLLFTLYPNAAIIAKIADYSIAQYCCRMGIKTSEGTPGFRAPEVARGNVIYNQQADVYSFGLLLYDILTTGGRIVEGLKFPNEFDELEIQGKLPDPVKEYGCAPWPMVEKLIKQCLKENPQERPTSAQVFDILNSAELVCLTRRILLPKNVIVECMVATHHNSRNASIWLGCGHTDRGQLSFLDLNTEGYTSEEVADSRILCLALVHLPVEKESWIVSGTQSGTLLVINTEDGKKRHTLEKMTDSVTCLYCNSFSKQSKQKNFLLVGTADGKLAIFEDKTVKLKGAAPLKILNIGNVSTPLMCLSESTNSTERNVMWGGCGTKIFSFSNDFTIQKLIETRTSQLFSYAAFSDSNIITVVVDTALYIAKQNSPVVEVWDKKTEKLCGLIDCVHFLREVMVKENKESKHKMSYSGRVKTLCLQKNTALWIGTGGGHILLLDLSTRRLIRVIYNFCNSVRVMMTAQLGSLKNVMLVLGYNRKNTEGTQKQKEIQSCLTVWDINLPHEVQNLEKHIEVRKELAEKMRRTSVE
T1 sequence (Q5S007 whole entry): as the sequence (Q5S007 whole entry G2019S) above, with S2019G counted along it

By IC50 is commonly meant the concentration at which inhibition is half-maximal. On to `N#Cc1cc2c(nn1)[C@@H](Oc1ccc3[nH]nc(-c4cnco4)c3c1)CC2` (single isomer, unassigned) [Example 41, enantiomer 1, 7-((3-(Oxazol-5-yl)-1H-indazol-5-yl)oxy)-6,7-dihydro-5H-cyclopenta[c]pyridazine-3-carbonitrile], for which the IC50 on LRRK2 WT (class symbols) and at LRRK2 G2019S was less than 100 nM in each case.
In the case of `N#Cc1ccc2c(c1)CC(F)(F)[C@@H]2Nc1ccc2[nH]nc(-c3cnco3)c2c1` (single isomer, unassigned) [Example 42, enantiomer 1, 2,2-Difluoro-1-((3-(oxazol-5-yl)-1H-indazol-5-yl)amino)-2,3-dihydro-1H-indene-5-carbonitrile], the IC50 on LRRK2 WT (class symbols) and at LRRK2 G2019S was less than 100 nM in each case.
As to `Cc1n[nH]c2ccc(N[C@H]3CCCc4cc(C#N)ccc43)cc12` (single isomer, unassigned) [Example 43, enantiomer 1, 5-((3-Methyl-1H-indazol-5-yl)amino)-5,6,7,8-tetrahydronaphthalene-2-carbonitrile], the IC50 at LRRK2 WT (class symbols) was 100 to 1000 nM; on LRRK2 G2019S, less than 100 nM.
Turning to `Cc1n[nH]c2ccc(N[C@H]3CCCc4cc(C#N)ccc43)cc12` (single isomer, unassigned) [Example 43, enantiomer 2, 5-((3-Methyl-1H-indazol-5-yl)amino)-5,6,7,8-tetrahydronaphthalene-2-carbonitrile], the half-maximal inhibitory concentration (IC50) is 1000 to 10000 nM on LRRK2 WT (class symbols) and 100 to 1000 nM at LRRK2 G2019S.
On to `N#Cc1ccc2c(c1)CCC[C@@H]2Nc1ccc2[nH]nc(-c3cncs3)c2c1` (single isomer, unassigned) [Example 44, 5-((3-(Thiazol-5-yl)-1H-indazol-5-yl)amino)-5,6,7,8-tetrahydronaphthalene-2-carbonitrile], for which the IC50 on LRRK2 WT (class symbols) and on LRRK2 G2019S was less than 100 nM each time.
`N#Cc1ccc2c(c1)CCC[C@@H]2Nc1ccc2[nH]nc(C3CCCCC3)c2c1` (single isomer, unassigned) [Example 45, 5-((3-Cyclohexyl-1H-indazol-5-yl)amino)-5,6,7,8-tetrahydronaphthalene-2-carbonitrile]: the figures for the IC50 at LRRK2 WT (numeric bound) and at LRRK2 G2019S were greater than 10000 nM and 1000 to 10000 nM, respectively.
As to `Cn1cccc(-c2n[nH]c3ccc(N[C@H]4CCCc5cc(C#N)ccc54)cc23)c1=O` (single isomer, unassigned) [Example 46, 5-((3-(1-Methyl-2-oxo-1,2-dihydropyridin-3-yl)-1H-indazol-5-yl)amino)-5,6,7,8-tetrahydronaphthalene-2-carbonitrile], the IC50 was greater than 10000 nM on LRRK2 WT (numeric bound) and 100 to 1000 nM at LRRK2 G2019S.
On to `N#Cc1nc2c(s1)[C@@H](Nc1ccc3[nH]nc(-c4cnco4)c3c1)CCC2` (single isomer, unassigned) [Example 47, enantiomer 1, 7-((3-(Oxazol-5-yl)-1H-indazol-5-yl)amino)-4,5,6,7-tetrahydrobenzo[d]thiazole-2-carbonitrile], for which the IC50 at LRRK2 WT (class symbols) and at LRRK2 G2019S was 100 to 1000 nM in each case.
For the molecule `N#Cc1nc2c(s1)[C@@H](Nc1ccc3[nH]nc(-c4cnco4)c3c1)CCC2` (single isomer, unassigned) [Example 47, enantiomer 2, 7-((3-(Oxazol-5-yl)-1H-indazol-5-yl)amino)-4,5,6,7-tetrahydrobenzo[d]thiazole-2-carbonitrile], the IC50 on LRRK2 WT (class symbols) and on LRRK2 G2019S was less than 100 nM each time.
Take `N#Cc1cnc2c(c1)C1CC1[C@@H]2Nc1ccc2[nH]nc(-c3cnco3)c2c1` (single isomer, unassigned) [Example 48, enantiomer 1, 6-((3-(Oxazol-5-yl)-1H-indazol-5-yl)amino)-4b,5,5a,6-tetrahydrocyclopropa[3,4]cyclopenta[1,2-b]pyridine-3-carbonitrile]: the IC50 at LRRK2 WT (class symbols) and at LRRK2 G2019S was less than 100 nM throughout.
As for `N#Cc1cnc2c(c1)CCC[C@@H]2Nc1ccc2[nH]nc(-c3cnn(C(F)F)c3)c2c1` (single isomer, unassigned) [Example 49, enantiomer 1, 8-((3-(1-(Difluoromethyl)-1H-pyrazol-4-yl)-1H-indazol-5-yl)amino)-5,6,7,8-tetrahydroquinoline-3-carbonitrile], the IC50 on LRRK2 WT (class symbols) and on LRRK2 G2019S was less than 100 nM each time.
Regarding `N#Cc1cnc2c(c1)CCC[C@@H]2Nc1ccc2[nH]nc(-c3cnn(C(F)F)c3)c2c1` (single isomer, unassigned) [Example 49, enantiomer 2, 8-((3-(1-(Difluoromethyl)-1H-pyrazol-4-yl)-1H-indazol-5-yl)amino)-5,6,7,8-tetrahydroquinoline-3-carbonitrile], the IC50 at LRRK2 WT (class symbols) is 100 to 1000 nM; on LRRK2 G2019S, less than 100 nM.
As to `Cc1c(C#N)ccc2c1CC[C@@H]2Oc1ccc2[nH]nc(-c3cnn(C(F)F)c3)c2c1` (single isomer, unassigned) [Example 50, enantiomer 1, 1-((3-(1-(Difluoromethyl)-1H-pyrazol-4-yl)-1H-indazol-5-yl)oxy)-4-methyl-2,3-dihydro-1H-indene-5-carbonitrile], the IC50 at LRRK2 WT (class symbols) and on LRRK2 G2019S was less than 100 nM in each case.
For `Cc1c(C#N)ccc2c1CC[C@@H]2Oc1ccc2[nH]nc(-c3cnn(C(F)F)c3)c2c1` (single isomer, unassigned) [Example 50, enantiomer 2, 1-((3-(1-(Difluoromethyl)-1H-pyrazol-4-yl)-1H-indazol-5-yl)oxy)-4-methyl-2,3-dihydro-1H-indene-5-carbonitrile], the IC50 at LRRK2 WT (class symbols) is less than 100 nM; at LRRK2 G2019S, 100 to 1000 nM.
With `N#Cc1ccc2c(c1F)CC[C@@H]2Oc1ccc2[nH]nc(-c3cnn(C(F)F)c3)c2c1` (single isomer, unassigned) [Example 51, enantiomer 1, 1-((3-(1-(Difluoromethyl)-1H-pyrazol-4-yl)-1H-indazol-5-yl)oxy)-4-fluoro-2,3-dihydro-1H-indene-5-carbonitrile], the IC50 on LRRK2 WT (class symbols) and on LRRK2 G2019S was less than 100 nM throughout.
Take `Cc1c(C#N)ccc2c1CC[C@@H]2Nc1ccc2[nH]nc(-c3cnn(C(F)F)c3)c2c1` (single isomer, unassigned) [Example 52, enantiomer 1, 1-((3-(1-(Difluoromethyl)-1H-pyrazol-4-yl)-1H-indazol-5-yl)amino)-4-methyl-2,3-dihydro-1H-indene-5-carbonitrile]: the IC50 at LRRK2 WT (class symbols) and at LRRK2 G2019S was less than 100 nM each time.
With `N#Cc1ccc2c(c1F)CC[C@H]2Nc1ccc2[nH]nc(-c3cnn(C(F)F)c3)c2c1` (single isomer, unassigned) [Example 53, enantiomer 1, 1-((3-(1-(Difluoromethyl)-1H-pyrazol-4-yl)-1H-indazol-5-yl)amino)-4-fluoro-2,3-dihydro-1H-indene-5-carbonitrile], the IC50 at LRRK2 WT (class symbols) and on LRRK2 G2019S was less than 100 nM in each case.
Take `N#Cc1ccc2c(c1F)CC[C@H]2Nc1ccc2[nH]nc(-c3cnn(C(F)F)c3)c2c1` (single isomer, unassigned) [Example 53, enantiomer 2, 1-((3-(1-(Difluoromethyl)-1H-pyrazol-4-yl)-1H-indazol-5-yl)amino)-4-fluoro-2,3-dihydro-1H-indene-5-carbonitrile]: the IC50 on LRRK2 WT (class symbols) was 100 to 1000 nM; on LRRK2 G2019S it was less than 100 nM.
`N#Cc1ccc2c(c1)CCC[C@@H]2Nc1ccc2[nH]nc(C3=CCCCC3)c2c1` (single isomer, unassigned) [Example 54, 5-((3-(Cyclohex-1-en-1-yl)-1H-indazol-5-yl)amino)-5,6,7,8-tetrahydronaphthalene-2-carbonitrile]: the IC50 on LRRK2 WT (class symbols) was 1000 to 10000 nM; at LRRK2 G2019S, 100 to 1000 nM.
For `N#Cc1ccc2c(c1)CCC[C@@H]2Nc1ccc2[nH]nc(-c3ccc(C(=O)O)cc3)c2c1` (single isomer, unassigned) [Example 55, 4-(5-((6-Cyano-1,2,3,4-tetrahydronaphthalen-1-yl)amino)-1H-indazol-3-yl)benzoic acid], the IC50 on LRRK2 WT (class symbols) and on LRRK2 G2019S was less than 100 nM in each case.
Take `Cn1cc2ccc(-c3n[nH]c4ccc(N[C@H]5CCCc6cc(C#N)ccc65)cc34)cc2n1` (single isomer, unassigned) [Example 56, 5-((2′-Methyl-1H,2′H-[3,6′-biindazol]-5-yl)amino)-5,6,7,8-tetrahydronaphthalene-2-carbonitrile]: the values for the IC50 at LRRK2 WT (class symbols) and on LRRK2 G2019S were 1000 to 10000 nM and 100 to 1000 nM, respectively.
On to `CS(=O)(=O)c1cccc(-c2n[nH]c3ccc(N[C@H]4CCCc5cc(C#N)ccc54)cc23)c1` (single isomer, unassigned) [Example 57, 5-((3-(3-(Methylsulfonyl)phenyl)-1H-indazol-5-yl)amino)-5,6,7,8-tetrahydronaphthalene-2-carbonitrile], for which the IC50 on LRRK2 WT (class symbols) and on LRRK2 G2019S was less than 100 nM throughout.
For `COc1cc(OC)cc(-c2n[nH]c3ccc(N[C@H]4CCCc5cc(C#N)ccc54)cc23)c1` (single isomer, unassigned) [Example 58, 5-((3-(3,5-Dimethoxyphenyl)-1H-indazol-5-yl)amino)-5,6,7,8-tetrahydronaphthalene-2-carbonitrile], the figures for the IC50 on LRRK2 WT (class symbols) and on LRRK2 G2019S were 100 to 1000 nM and less than 100 nM, respectively.
In the case of `Cc1ncc(-c2n[nH]c3ccc(N[C@H]4CCCc5cc(C#N)ccc54)cc23)o1` (single isomer, unassigned) [Example 60, 5-((3-(2-Methyloxazol-5-yl)-1H-indazol-5-yl)amino)-5,6,7,8-tetrahydronaphthalene-2-carbonitrile], the IC50 on LRRK2 WT (class symbols) and at LRRK2 G2019S was less than 100 nM throughout.
In the case of `N#Cc1ccc2c(c1)CCC[C@@H]2Nc1ccc2[nH]nc(-c3ccc4cc[nH]c4c3)c2c1` (single isomer, unassigned) [Example 61, 5-((3-(1H-Indol-6-yl)-1H-indazol-5-yl)amino)-5,6,7,8-tetrahydronaphthalene-2-carbonitrile], the IC50 was 100 to 1000 nM at LRRK2 WT (class symbols) and less than 100 nM at LRRK2 G2019S.

For the origin of these results see US20230148214A1, “INDAZOLES AND AZAINDAZOLES AS LRRK2 INHIBITORS” (ESCAPE Bio, Inc., priority 2020, published 2023).
